pIC50: −log10 of the molar value.
Assays:
[1] = system: P. falciparum strain NF54; conditions: read-out: IC50, P. falciparum strain NF54; erythrocytic stages in vitro; ref [8]; cited from earlier work
P. falciparum strain K1 = conditions: read-out: IC50, P. falciparum strain K1; erythrocytic stages in vitro; ref [8]; cited from earlier work
[2] = system: P. falciparum 3D7 chloroquine (CQ) sensitive strain; assay: In vitro antiplasmodial test, Giemsa-stained smear parasitemia count; format: cell-based; conditions: Plasmodium falciparum, 3D7, 24 h, read-out: P. falciparum IC50

pIC50 [2] | Structure (SMILES) | pIC50 [1] | pIC50 (P. falciparum strain K1)
– | COc1cc(C=C2Oc3cc(OC(C)=O)cc(OC(C)=O)c3C2=O)cc(OC)c1OC(C)=O [4,6,4′-triacetyl-3′,5′-dimethoxy-2-aurone] | 6.74 | 8.15
6.11 | CCN(CC)CCCC(C)Nc1ccnc2cc(Cl)ccc12 (stereo not drawn) [CQ, Chloroquine] | – | –

From article PMC5256054 (Iranian Journal of Parasitology, 2016)
